Measured values taken from patent publication US8173133B2, “Acyl pseudodipeptides which carry a functionalized auxiliary arm” (OM Pharma, priority 1999, dated 2012).
pIC50: −log10 of the molar value. Values joined by “and” are separate entries in the source; they are usually repeats but may differ in a detail not shown here. Identical values can stand only once.

How the values were obtained:
[1] = system: MxA protein; assay: MxA protein induction in dendritic cells (Western blot); type: cell-based, human; details: 1 μg/ml; after 24 hr and 48 hours; FIGS. 77, 78
Experimental: The ability of products of the invention to induce production of antiviral MxA protein by predendritic cells has been assessed. MxA production by cells was measured after an SDS-PAGE electrophoretic separation by a Western Blot assay
Extraction and analysis of protein was conducted as follows: cells were harvested, then washed 3 times with PBS (phosphate buffered saline) and lyzed with a 100 Mm Tris-HCl buffer, 150 mM NaCl, 5 mM EDTA, 1% Triton-100 containing 1 mM PMSF (phenylmethylsulphonyl fluoride) and 1 μ/ml of pepstatin as protease inhibitors. Lysis was carried out at a density of 10^6 cells for 100 μl of (5×) buffer containing 60 mM Tris-HCl (pH 6.8), 10% glycerol, 2% SDS, 14.4 mM 2-mercaptoethanol and 0.1% bromophenol). Samples were heated up to 95° C. for 5 min. in sealed Eppendorf tubes. Electrophoresis was performed on a 10 cm×10 cm 12% acrylamide minigel by running a sample having the same number of cells. Migration was effected with the following buffer: 25 mM Tris, 192 mM glycine, 0.1% SDS, pH 8.3. […]
Non specific bonding sites on the membrane were blocked with 5% skimmed milk in TBS (10 mM Tris-HCl, 150 Mm NaCl, pH 7.4) and allowing to stand for 1 hour at room temperature. […] In this system, HRP catalyzes a luminol-mediated chemiluminescent reaction which can be detected on a photographic film. […]

[2] = system: Limulus Amoebocyte Lysate
[3] = system: Spleenic cells; assay: murine spleenic cell proliferation (3H-TdR take-up); type: cell-based, CBA mice; details: for increase of thymidine take-up: one day of culture
Experimental: Cell proliferation response is assessed by measuring triturated thymidine (^3H-TdR) take-up after 1 or 2 days of culture. Values reported in the table stand for the arithmetic mean±standard deviation of 4 cultures.

[4] = system: dendritic cells; assay: in vivo maturation and migration of dendritic cells into the spleen; design: species or system mice; details: i.v. 20 μg and s.c. 5 μg per mouse
Text: Immunostaining of histological slides taken from spleen of animals treated with products of the invention reveal colocalization of mature dendritic cells and T cells in the […], as is seen with LPS treatment, whereas in untreated animals, no migration and maturation are observed.

[5] = system: K562 cells; assay: activation of NK cell cytotoxicity against K562 target cells (LDH release); type: cell-based, human
Experimental: PBMC were recovered from buffy coats according to the procedure previously described in example 4.6. […] Cells were incubated under such conditions for 24 hours. K562 cells (human leukemia cell line, ATCC #CCL 243, 20110-2209 Manassas (Va.), U.S.A.) were maintained in culture using RPMI medium containing 10% FCS and subjected to 2 passages per week.
In order to make cytotoxicity measurement, PBMC and K562 cells were washed twice in HBSS and resuspended in Phenol Red-free RPMI medium containing 5% FCS. PBMC were divided into a round bottom 96-well plate so as to achieve a PBMC/target ratio of 20/1, 10/1 and 5/1 in 50 μl volume. 5000 K562 cells (target) were added in each well using 50 μl of Phenol Red-free RPMI. Final volume was 100 μl. The plate was centrifuged to promote contact then incubated at 37° C. for 4 hours.
Cytotoxicity was assayed using a non radioactive CytoTox 96 kit based on measuring LDH release during cell lysis (kit #G1780, batch #124100, Promega, Madison, Wis.) according to the supplier's instructions.
The percentage of cytotoxicity was calculated according to the following equation: […]

[6] = system: Leishmania LmCPb antigen; assay: Leishmania LmCPb immunization: IL-4 and γ IFN in lymph node cell supernatant (ELISA); type: in vivo, CBA mice; details: pools a and b
Experimental: (§1) CBA mice were administered through the tail a single subcutaneous injection (100 μl) of Leishmania parasite LmCPb antigen (3 μg per mouse)±adjuvant. […] Eleven days after injection, inguinal and periaortic lymph node cells (2 groups of 3 mice each) were cultured in triplicate in presence of purified LmCPb antigen or whole extract of the parasite (amastigote). At day 4, a supernatant sample is withdrawn and stored at −20° C. for IL-4 and γ IFN assay. Finally, tritiated thymidine (^3H-TdR) is added to the cultures to measure the proliferation reaction.
(§2) Cytokine assay is carried out by a sandwich ELISA assay (OptEIA®) kits for γ IFN and IL-4, BD, PharMingen, Basel, Switzerland) and the proliferation response is determined by measuring thymidine take-up (^3H-TdR). ^3H-TdR take-up given in cpm as the arithmetic mean value±standard deviation ([…] of 3 mice each) and IL-4 concentration given in pg/ml are individually reported for each pool of 3 mice as the arithmetic mean of two measurements (cytokine assay).
(§3) An LmCPb stock solution is prepared at a concentration of 150 μg/ml in PBS
(§4) Adjuvants: The stock solution of OM-294-MP-AC is prepared at a concentration of 0.9 mg/ml in water for injection, with addition of 0.1% triethanolamine.
(§5) Antigen-adjuvant mixture: Adjuvant preparation (4 volumes), which had been adjusted to an adequate final concentration in sterile PBS, is mixed just prior to injection with the antigen stock solution (1 volume).

[7] = system: Leishmania LmCPb antigen; assay: Leishmania LmCPb immunization: lymph node cell proliferation (3H-TdR); type: in vivo, CBA mice; design: scale not given here
Experimental: as §1, §2, §3, §4, §5

[8] = system: MT-4 cells; assay: cytotoxicity on virus-free MT-4 cells (MTT); type: cell-based
Experimental: Cytotoxicity of a given product is assessed in the same manner in the lower portion of the plate where the test is conducted by incubating serially diluted products over virus-free cells, to thereby determine the toxic effect of products on cells. The result is given as CC50, i.e. the concentration at which 50% of cells are dead due to product toxicity. Selectivity (selectivity index, SI) of a given product is defined as a CC50/IC50 ratio. This parameter is of great importance since the selectivity index of a fairly efficient product is high.

[9] = system: HIV-1 IIIB; assay: anti-HIV activity in MT-4 cells (MTT), HIV-1 IIIB; type: cell-based
Experimental: (§6) T MT-4 lymphocyte cell line which had been transformed into a continuous cell line by an HTLV infection, a virus associated with one form of leukemia, was used to test the antiviral activity (anti-HIV) of AZT- and d4T-conjugated compounds according to the invention, respectively. A characteristic feature of such cells is lack of survival following an HIV infection. The test is based on protection provided by the product (like AZT) against this viral destructive effect. Products were tested in serially diluted solutions in a 96-well plate. In the upper portion of the microplate, products were tested by incubation at various concentrations with cells and virus (in triplicate), so as to determine the concentration of product which affords cell protection against the viral destructive effect. IC50 of the product is taken as the concentration where a 50% loss of viable cell count is recorded. Viable cell count was done with MTT, a yellow tetrazolium compound which undergoes enzymatic reduction (at the mitochondrial level in viable cells) into a purple colored formazan compound. Wells containing viable cells are purple in colour, whereas dead cells give a persistent yellow color. Measurement of optical density (O.D.) allows this effect to be quantified.

[10] = system: HIV-2 ROD; assay: anti-HIV activity in MT-4 cells (MTT), HIV-2 ROD; type: cell-based
Experimental: as §6

CCCCCCCCCCCC(=O)O[C@H](CCCCCCCCCCC)CC(=O)NC(CCOP(=O)(O)O)C(=O)NCCCC(COC(=O)CCCCCN)NC(=O)C[C@H](O)CCCCCCCCCCC (stereo partly drawn) [OM-197-MP-AC, 3-[(R)-3-dodecanoyloxytetra-decanoylamino]-4-oxo-5-aza-9-[(R)-3-hydroxytetradecanoylamino]-1,10-diol-dihydrogenphosphate 10-(6-aminohexanoate)]
production of MxA protein [1]: significant rise | LAL EU/mg of product [2]: 6 EU/mg of product | LAL ng of LPS equivalent per mg of product [2]: 0.48 ng of LPS equivalent per mg of product | 3H-TdR take-up ([3]; 0.1 μg/ml, incubation 1 day): 8.7 ± 0.7 CPM × 10^−3 | 3H-TdR take-up ([3]; 0.1 μg/ml, incubation 2 days): 21.1 ± 1.3 CPM × 10^−3 | 3H-TdR take-up ([3]; 1 μg/ml, incubation 1 day): 34.3 ± 2.6 CPM × 10^−3 | 3H-TdR take-up ([3]; 1 μg/ml, incubation 2 days): 55.6 ± 5.2 CPM × 10^−3 | increase of thymidine take-up ([3]; 1 μg/ml): 5 fold | 3H-TdR take-up ([3]; 10 μg/ml, incubation 1 day): 79.0 ± 12 CPM × 10^−3 | 3H-TdR take-up ([3]; 10 μg/ml, incubation 2 days): 92.7 ± 8.8 CPM × 10^−3 | increase of thymidine take-up ([3]; 10 μg/ml): 12 fold | maturation and migration of dendritic cells in spleen [4]: induce maturation and migration of dendritic cells into the spleen | NK activity level ([5]; 1 μg/ml): comparable or slightly inferior to that induced by LPS | % cytotoxicity ([5]; Ratio PBMC:K562 5.1): 7.4% | Optical density at 490 nm, K562 + PBMC ([5]; Ratio PBMC:K562 5.1): 1.5 | Optical density at 490 nm, PBMC alone ([5]; Ratio PBMC:K562 5.1): 0.027 | % cytotoxicity ([5]; Ratio PBMC:K562 10.1): 13.7% | Optical density at 490 nm, K562 + PBMC ([5]; Ratio PBMC:K562 10.1): 1.66 | Optical density at 490 nm, PBMC alone ([5]; Ratio PBMC:K562 10.1): 0.084 | % cytotoxicity ([5]; Ratio PBMC:K562 20.1): 22% | Optical density at 490 nm, K562 + PBMC ([5]; Ratio PBMC:K562 20.1): 1.8 | Optical density at 490 nm, PBMC alone ([5]; Ratio PBMC:K562 20.1, stimulus 24 hours): 0.084 | IL-4 production ([6]; No challenge): <8 pg/mL | IL-4 production ([6]; in vitro challenge Amastigotes, first pair of lines): 55 pg/mL and 70 pg/mL | IL-4 production ([6]; in vitro challenge Amastigotes, second pair of lines): 29 pg/mL and 28 pg/mL | IL-4 production ([6]; in vitro challenge Con A): 103 pg/mL and 102 pg/mL | IL-4 production ([6]; in vitro challenge LmCPb): 12 pg/mL and 13 pg/mL | triturated thymidine take-up ([7]; adjuvant 50 μg s.c. with LmCPb, in vitro: No challenge): 0.7 ± 0.1 CPM | triturated thymidine take-up ([7]; in vitro challenge Amastigotes 2 ×10^−6/ml): 1.6 ± 0.3 CPM | triturated thymidine take-up ([7]; in vitro challenge Amastigotes 6 ×10^−6/ml): 5.3 ± 1.5 CPM | triturated thymidine take-up ([7]; in vitro challenge Amastigotes 17 ×10^−6/ml): 12.6 ± 2.5 CPM | triturated thymidine take-up ([7]; in vitro challenge Amastigotes 50 ×10^−6/ml): 32.6 ± 5.2 CPM | triturated thymidine take-up ([7]; in vitro challenge Con A 5 μg/ml): 208.5 ± 56.0 CPM | triturated thymidine take-up ([7]; in vitro challenge LmCPb 0.6 μg/ml): 1.3 ± 0.5 CPM | triturated thymidine take-up ([7]; in vitro challenge LmCPb 5 μg/ml): 3.0 ± 1.1 CPM | triturated thymidine take-up ([7]; in vitro challenge LmCPb 15 μg/ml): 7.0 ± 0.7 CPM

Cc1cn([C@H]2C[C@H](N=[N+]=[N-])[C@@H](CO)O2)c(=O)[nH]c1=O [AZT, reference compound]
CC50 [8]: 187 µM | pIC50 [9]: 8.54 | pIC50 [10]: 8.74

Cc1cn([C@H]2C=C[C@@H](CO)O2)c(=O)[nH]c1=O [Example D4T, reference compound]
CC50 [8]: 321 µM | pIC50 [9]: 6.97 | pIC50 [10]: 6.66
